Source: ChEMBL document CHEMBL1133231, “Syntheses and binding affinities of 6-nitroquipazine analogues for serotonin transporter. Part 1” (Bioorg Med Chem Lett, 2000)

Target: Sodium-dependent serotonin transporter (Rattus norvegicus, UniProt P31652)
Assay: Inhibition of [3H]citalopram binding to Serotonin transporter of rat cerebral cortex
Format: tissue-based

Chain of Sodium-dependent serotonin transporter (P31652 whole entry): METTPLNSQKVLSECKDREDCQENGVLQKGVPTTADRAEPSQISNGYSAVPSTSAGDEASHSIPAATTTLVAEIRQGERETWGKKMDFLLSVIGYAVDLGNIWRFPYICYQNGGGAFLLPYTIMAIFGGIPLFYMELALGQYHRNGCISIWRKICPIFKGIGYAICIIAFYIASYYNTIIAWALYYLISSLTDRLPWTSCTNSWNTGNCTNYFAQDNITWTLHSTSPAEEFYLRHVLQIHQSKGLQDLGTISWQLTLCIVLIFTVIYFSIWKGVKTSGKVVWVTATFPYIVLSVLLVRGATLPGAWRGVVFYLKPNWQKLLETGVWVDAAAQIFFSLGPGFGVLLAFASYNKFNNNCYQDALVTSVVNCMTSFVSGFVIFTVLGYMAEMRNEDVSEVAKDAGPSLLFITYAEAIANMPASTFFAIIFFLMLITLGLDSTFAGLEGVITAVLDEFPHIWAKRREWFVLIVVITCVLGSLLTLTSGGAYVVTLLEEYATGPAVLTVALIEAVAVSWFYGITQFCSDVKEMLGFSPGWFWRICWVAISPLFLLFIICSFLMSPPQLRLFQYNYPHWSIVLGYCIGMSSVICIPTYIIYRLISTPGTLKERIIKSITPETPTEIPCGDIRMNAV

SMILES	Ki
O=[N+]([O-])c1cc([N+](=O)[O-])c2nc(N3CCNCC3)ccc2c1	313 nM
NCCNc1ccc2cc([N+](=O)[O-])ccc2n1	164 nM
c1ccc2nc(N3CCNCC3)ccc2c1 [QUIPAZINE]	63 nM
